Tests used:
[1] = Cytotoxicity against human 59M cells measured after 8 days; format: functional, cell-based; conditions: 192 h
[2] = Cytotoxicity against human COLO 794 cells measured after 8 days; format: functional, cell-based; conditions: COLO 794, 192 h
Detroit 562 = assay: Cytotoxicity against human Detroit 562 cells measured after 8 days; format: functional, cell-based; conditions: Detroit 562, 192 h
[3] = Cytotoxicity against human KPR3351 cells measured after 8 days; format: functional, cell-based; conditions: KPR3351, 192 h
KYSE-180 = assay: Cytotoxicity against human KYSE-180 cells measured after 8 days; format: functional, cell-based; conditions: KYSE-180, 192 h
[4] = Cytotoxicity against human SC1 cells measured after 8 days; format: functional, cell-based; conditions: SC-1, 192 h
[5] = Cytotoxicity against human OCI-M1 cells measured after 8 days; format: functional, cell-based; conditions: OCI-M1, 192 h
HeLa = assay: Cytotoxicity against human HeLa cells measured after 8 days; format: functional, cell-based; conditions: 192 h
SW1463 = assay: Cytotoxicity against human SW1463 cells measured after 8 days; format: functional, cell-based; conditions: SW1463, 192 h
[6] = Cytotoxicity against human UM-RC-6 cells measured after 8 days; format: functional, cell-based; conditions: UM-RC-6, 192 h
JIYOYE = assay: Cytotoxicity against human JIYOYE cells measured after 8 days; format: functional, cell-based; conditions: 192 h
[7] = Cytotoxicity against human PK-1 cells measured after 8 days; format: functional, cell-based; conditions: PK-1, 192 h
[8] = Cytotoxicity against human KLM-1 cells measured after 8 days; format: functional, cell-based; conditions: KLM1, 192 h
MDA-MB-175-VII = assay: Cytotoxicity against human MDA-MB-175-VII cells measured after 8 days; format: functional, cell-based; conditions: 192 h
[9] = Cytotoxicity against human COLO 858 cells measured after 8 days; format: functional, cell-based; conditions: COLO 858, 192 h
Hs 695T = assay: Cytotoxicity against human Hs 695T cells measured after 8 days; format: functional, cell-based; conditions: 192 h
[10] = Cytotoxicity against human BICR 10 cells measured after 8 days; format: functional, cell-based; conditions: BICR 10, 192 h
Rec1 = assay: Cytotoxicity against human REC1 cells measured after 8 days; format: functional, cell-based; conditions: Rec1, 192 h
143B = assay: Cytotoxicity against human 143B cells measured after 8 days; format: functional, cell-based; conditions: 192 h
[11] = Cytotoxicity against human JHH7 cells measured after 8 days; format: functional, cell-based; conditions: JHH7, 192 h
SIMA = assay: Cytotoxicity against human SIMA cells measured after 8 days; format: functional, cell-based; conditions: 192 h
[12] = Cytotoxicity against human HCA1 cells measured after 8 days; format: functional, cell-based; conditions: HCA1, 192 h
[13] = Cytotoxicity against human FTC-238 cells measured after 8 days; format: functional, cell-based; conditions: FTC-238, 192 h
IGR-1 = assay: Cytotoxicity against human IGR-1 cells measured after 8 days; format: functional, cell-based; conditions: IGR-1, 192 h
[14] = Cytotoxicity against human HCC1576 cells measured after 8 days; format: functional, cell-based; conditions: HCC1576, 192 h
MDA-MB-435 = assay: Cytotoxicity against human MDA-MB-435 cells measured after 8 days; format: functional, cell-based; conditions: MDA-MB-435, 192 h
[15] = Cytotoxicity against human PE/CA-PJ15 cells measured after 8 days; format: functional, cell-based; conditions: PE/CA-PJ15, 192 h
GB-1 = assay: Cytotoxicity against human GB-1 cells measured after 8 days; format: functional, cell-based; conditions: GB-1, 192 h
RPMI-2650 = assay: Cytotoxicity against human RPMI-2650 cells measured after 8 days; format: functional, cell-based; conditions: RPMI-2650, 192 h
OAW-42 = assay: Cytotoxicity against human OAW-42 cells measured after 8 days; format: functional, cell-based; conditions: OAW-42, 192 h
[16] = Cytotoxicity against human HEC-108 cells measured after 8 days; format: functional, cell-based; conditions: HEC-108, 192 h
[17] = Cytotoxicity against human 537-mel cells measured after 8 days; format: functional, cell-based; conditions: 192 h
OCI-Ly10 = assay: Cytotoxicity against human OCI-Ly10 cells measured after 8 days; format: functional, cell-based; conditions: OCI-Ly10, 192 h
OVCAR-4 = assay: Cytotoxicity against human OVCAR-4 cells measured after 8 days; format: functional, cell-based; conditions: OVCAR-4, 192 h
[18] = target: Serine/threonine-protein kinase PLK1 (Homo sapiens) (UniProt P53350); assay: Inhibition of PLK1 (unknown origin) at 1 uM relative to control
[19] = Cytotoxicity against human HuH-1 cells measured after 8 days; format: functional, cell-based; conditions: HuH-1, 192 h
Hs746T = assay: Cytotoxicity against human Hs746T cells measured after 8 days; format: functional, cell-based; conditions: 192 h
Jurkat = assay: Cytotoxicity against human Jurkat cells measured after 8 days; format: functional, cell-based; conditions: 192 h
[20] = Cytotoxicity against human COV413B cells measured after 8 days; format: functional, cell-based; conditions: 192 h
[21] = Cytotoxicity against human NCE-G 140 cells measured after 8 days; format: functional, cell-based; conditions: NCE-G 140, 192 h
B16-F10 = assay: Cytotoxicity against mouse B16-F10 cells measured after 8 days; format: functional, cell-based; conditions: B16-F10, 192 h
COR-L47 = assay: Cytotoxicity against human COR-L47 cells measured after 8 days; format: functional, cell-based; conditions: COR-L47, 192 h
SiHa = assay: Cytotoxicity against human SiHa cells measured after 8 days; format: functional, cell-based; conditions: 192 h
KYSE-270 = assay: Cytotoxicity against human KYSE-270 cells measured after 8 days; format: functional, cell-based; conditions: KYSE-270, 192 h
[22] = Cytotoxicity against human KCI-MOH1 cells measured after 8 days; format: functional, cell-based; conditions: KCI-MOH1, 192 h
Skut1B = assay: Cytotoxicity against human Skut1B cells measured after 8 days; format: functional, cell-based; conditions: 192 h
[23] = Cytotoxicity against human KATO III stomach cancer cell line measured after 8 days; format: functional, cell-based; conditions: 192 h
[24] = Cytotoxicity against human CL-11 cells measured after 8 days; format: functional, cell-based; conditions: CL-11, 192 h
[25] = Cytotoxicity against human COLO 857 cells measured after 8 days; format: functional, cell-based; conditions: COLO 857, 192 h
BFTC-909 = assay: Cytotoxicity against human BFTC-909 cells measured after 8 days; format: functional, cell-based; conditions: BFTC-909, 192 h
H322 = assay: Cytotoxicity against human H322 cells measured after 8 days; format: functional, cell-based; conditions: NCI-H322, 192 h
[26] = Cytotoxicity against human SNU-216 cells measured after 8 days; format: functional, cell-based; conditions: SNU-216, 192 h
KMS-12-BM = assay: Cytotoxicity against human KMS-12-BM cells measured after 8 days; format: functional, cell-based; conditions: 192 h
SET-2 = assay: Cytotoxicity against human SET2 cells measured after 8 days; format: functional, cell-based; conditions: SET-2, 192 h
IPC-298 = assay: Cytotoxicity against human IPC-298 cells measured after 8 days; format: functional, cell-based; conditions: IPC-298, 192 h
SJRH30 = assay: Cytotoxicity against human SJRH30 cells measured after 8 days; format: functional, cell-based; conditions: SJRH30, 192 h
LOX IMVI = assay: Cytotoxicity against human LOX IMVI cells measured after 8 days; format: functional, cell-based; conditions: 192 h
[27] = Cytotoxicity against human HCC1482 cells measured after 8 days; format: functional, cell-based; conditions: HCC1482, 192 h
KP-N-YN = assay: Cytotoxicity against human KP-N-YN cells measured after 8 days; format: functional, cell-based; conditions: 192 h
[28] = Cytotoxicity against human HEC-265 cells measured after 8 days; format: functional, cell-based; conditions: HEC-265, 192 h
[29] = Cytotoxicity against human JHH-1 cells measured after 8 days; format: functional, cell-based; conditions: JHH1, 192 h
NCI-H417 = assay: Cytotoxicity against human NCI-H417 cells measured after 8 days; format: functional, cell-based; conditions: NCI-H417, 192 h

Serine/threonine-protein kinase PLK1 (Homo sapiens), sequence (P53350 whole entry): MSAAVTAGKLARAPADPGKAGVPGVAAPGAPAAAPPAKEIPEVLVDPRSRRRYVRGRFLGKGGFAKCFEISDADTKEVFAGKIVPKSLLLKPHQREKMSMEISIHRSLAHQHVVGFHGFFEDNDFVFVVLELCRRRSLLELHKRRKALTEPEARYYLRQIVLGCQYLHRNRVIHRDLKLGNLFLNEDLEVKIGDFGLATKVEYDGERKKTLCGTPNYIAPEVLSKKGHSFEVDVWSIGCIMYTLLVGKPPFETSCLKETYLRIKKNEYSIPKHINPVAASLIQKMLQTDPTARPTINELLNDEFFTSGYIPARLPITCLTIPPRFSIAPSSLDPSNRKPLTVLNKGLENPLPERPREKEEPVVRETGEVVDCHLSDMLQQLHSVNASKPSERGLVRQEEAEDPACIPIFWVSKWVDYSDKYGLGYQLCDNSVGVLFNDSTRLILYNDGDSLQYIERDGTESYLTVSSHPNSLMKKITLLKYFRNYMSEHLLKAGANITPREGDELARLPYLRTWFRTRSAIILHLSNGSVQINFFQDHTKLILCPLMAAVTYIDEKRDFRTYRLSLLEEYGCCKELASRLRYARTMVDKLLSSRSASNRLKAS

## C/C=C/Cn1cc(-c2ccc(C(C)(C)O)cc2OC)c2cc[nH]c2c1=O
[1]
  IC50: 20 µM
[2]
  IC50: 20 µM
Detroit 562
  IC50: 20 µM
[3]
  IC50: 20 µM
KYSE-180
  IC50: 20 µM
[4]
  IC50: 17.8 µM
[5]
  IC50: 10.7 µM
HeLa
  IC50: 20 µM
SW1463
  IC50: 20 µM
[6]
  IC50: 20 µM
JIYOYE
  IC50: 13.5 µM
[7]
  IC50: 20 µM
[8]
  IC50: 20 µM
MDA-MB-175-VII
  IC50: 20 µM
[9]
  IC50: 20 µM
Hs 695T
  IC50: 20 µM
[10]
  IC50: 20 µM
Rec1
  IC50: 16.4 µM
143B
  IC50: 17.2 µM
[11]
  IC50: 17.8 µM
SIMA
  IC50: 20 µM
[12]
  IC50: 20 µM
[13]
  IC50: 9.52 µM
IGR-1
  IC50: 20 µM
[14]
  IC50: 20 µM
MDA-MB-435
  IC50: 11.1 µM
[15]
  IC50: 20 µM
GB-1
  IC50: 20 µM
RPMI-2650
  IC50: 20 µM
OAW-42
  IC50: 20 µM
[16]
  IC50: 20 µM
[17]
  IC50: 20 µM
OCI-Ly10
  IC50: 20 µM
OVCAR-4
  IC50: 20 µM
[18]
  inhibition: 1%
[19]
  IC50: 20 µM
Hs746T
  IC50: 20 µM
Jurkat
  IC50: 14.8 µM
[20]
  IC50: 20 µM
[21]
  IC50: 20 µM
B16-F10
  IC50: 20 µM
COR-L47
  IC50: 20 µM
SiHa
  IC50: 20 µM
KYSE-270
  IC50: 20 µM
[22]
  IC50: 20 µM
Skut1B
  IC50: 20 µM
[23]
  IC50: 20 µM
[24]
  IC50: 20 µM
[25]
  IC50: 20 µM
BFTC-909
  IC50: 20 µM
H322
  IC50: 20 µM
[26]
  IC50: 20 µM
KMS-12-BM
  IC50: 20 µM
SET-2
  IC50: 20 µM
IPC-298
  IC50: 20 µM
SJRH30
  IC50: 20 µM
LOX IMVI
  IC50: 20 µM
[27]
  IC50: 20 µM
KP-N-YN
  IC50: 20 µM
[28]
  IC50: 20 µM
[29]
  IC50: 20 µM
NCI-H417
  IC50: 20 µM

## C/C=C/Cn1cc(-c2ccc(C(=O)N3CCOCC3)cc2)c2cc[nH]c2c1=O
[1]
  IC50: 20 µM
[2]
  IC50: 20 µM
Detroit 562
  IC50: 20 µM
[3]
  IC50: 20 µM
KYSE-180
  IC50: 20 µM
[4]
  IC50: 20 µM
[5]
  IC50: 11.6 µM
HeLa
  IC50: 20 µM
SW1463
  IC50: 20 µM
[6]
  IC50: 20 µM
JIYOYE
  IC50: 2.85 µM
[7]
  IC50: 20 µM
[8]
  IC50: 20 µM
MDA-MB-175-VII
  IC50: 20 µM
[9]
  IC50: 20 µM
Hs 695T
  IC50: 20 µM
[10]
  IC50: 20 µM
Rec1
  IC50: 20 µM
143B
  IC50: 20 µM
[11]
  IC50: 20 µM
SIMA
  IC50: 20 µM
[12]
  IC50: 20 µM
[13]
  IC50: 20 µM
IGR-1
  IC50: 20 µM
[14]
  IC50: 20 µM
MDA-MB-435
  IC50: 20 µM
[15]
  IC50: 20 µM
GB-1
  IC50: 20 µM
RPMI-2650
  IC50: 20 µM
OAW-42
  IC50: 20 µM
[16]
  IC50: 20 µM
[17]
  IC50: 20 µM
OCI-Ly10
  IC50: 20 µM
OVCAR-4
  IC50: 20 µM
[18]
  inhibition: 0.9%
[19]
  IC50: 20 µM
Hs746T
  IC50: 20 µM
Jurkat
  IC50: 20 µM
[20]
  IC50: 20 µM
[21]
  IC50: 20 µM
B16-F10
  IC50: 20 µM
COR-L47
  IC50: 20 µM
SiHa
  IC50: 20 µM
KYSE-270
  IC50: 20 µM
[22]
  IC50: 20 µM
Skut1B
  IC50: 20 µM
[23]
  IC50: 20 µM
[24]
  IC50: 20 µM
[25]
  IC50: 20 µM
BFTC-909
  IC50: 20 µM
H322
  IC50: 20 µM
[26]
  IC50: 20 µM
KMS-12-BM
  IC50: 13.7 µM
SET-2
  IC50: 11.1 µM
IPC-298
  IC50: 18.6 µM
SJRH30
  IC50: 20 µM
LOX IMVI
  IC50: 20 µM
[27]
  IC50: 20 µM
KP-N-YN
  IC50: 20 µM
[28]
  IC50: 20 µM
[29]
  IC50: 20 µM
NCI-H417
  IC50: 20 µM

— ChEMBL document CHEMBL5260810, “Inhibition of bromodomain-containing protein 9 for the prevention of epigenetically-defined drug resistance” (Bioorg Med Chem Lett, 2017)
